Assays:
[1] = system: glutathione in the Golgi apparatus of HeLa cells; test: High-throughput cell imaging of cells loaded with GolgiFreSH-tracer; assay type: cell-based
Description: 1-6. High-Throughput Cell Imaging
HeLa cells were cultured in DMEM (containing 10% heat-inactivated FBS (Hyclone), 100 U/ml of penicillin, 100 μg/ml of streptomycin sulfite and 2 mM glutamine and free of phenol red). HeLa cells were seeded in Greiner 96-well dishes (Sigma-Aldrich), and then cultured under the conditions of 37° C. and 5% CO2 for the indicated time. Before observation using a fluorescence microscope, the HeLa cells were incubated with a medium containing 10 μM of the GolgiFreSH-tracer for 0.5 to 1.5 hours. After washing twice with Hank's balanced salt solution, real-time images of the cells were acquired using an Operetta High-Content Imaging System (PerkinElmer). The imaging test was performed while the cells w ere incubated under the conditions of 37° C. and 5% CO2 in a chamber mounted in the microscope. The GolgiFreSH-tracer was excited with LED light at 410-430 nm and 490-510 nm, and the fluorescence of the tracer was detected through filters with 460-540 nm and 560-630 nm band intervals, respectively. BODIPY TR C5ceramide was excited with LED light at 560-580 nm, and the fluorescence thereof was detected through filters with 590-640 nm band intervals. Using the Harmony software, the experimental data were analyzed (see FIGS. 4, 5 and 8). […]

[2] = system: mitochondrial glutathione in HeLa cells; test: Real-time imaging of living cells loaded with MitoFreSH-tracer (confocal, F510/F580 ratio); assay type: cell-based
Description: 1-5. Real-Time Imaging of Living Cells
HeLa cells were cultured in DMEM (containing 10% heat-inactivated FBS (Hyclone), 100 U/ml of penicillin, 100 μg/ml of streptomycin sulfate and 2 mM glutamine aid free of phenol red). HeLa cells were seeded in 35 mm cover glass bottom dishes (SPL Life Sciences), and then cultured under the conditions of 37° C. and 5% CO2 for foe indicated time. Before observation using a fluorescence microscope, the HeLa cells were incubated with 2 mL of a medium containing 10 μM of the FreSH-tracer-derived compound for 0.5 to 1.5 hours. After washing twice with PBS, real-time images of the cells were acquired using a Nikon A1 laser scanning confocal microscope. […] The FreSH-tracer-derived compound was excited with laser beams at 403 nm and 488 nm, and the fluorescence of the tracer-derived compound was detected through filters with 500-550 nm and 570-620 nm band intervals, respectively. Using NIS-Elements AR software, the experimental data were analyzed and the ratio of fluorescence was imaged (see FIGS. 4 and 5).
The present inventors have studied the applicability of the MitoFreSH-tracer to examination of changes in mitochondrial glutathione levels in living cells. […] The sensor fluorescence intensity ratio calculated from images of the living cells was reduced by treatment with diamide (FIGS. 4B and 4C). […]

CN(C)C(=O)/N=N/C(=O)N(C)C [diamide, Diamide] was tested, and the “fluorescence intensity ratio of GolgiFreSH-tracer in living cells” value ([1]; living cells treated with various concentrations of diamide) was “decreased depending on the concentration”, the “sensor fluorescence intensity ratio of GolgiFreSH-tracer in living cells” value ([1]; sensor-loaded living cells, 1 mM diamide) was “reduced” and the “sensor fluorescence intensity ratio (F510/F580) of MitoFreSH-tracer in living cells” value ([2]; HeLa cells loaded with MitoFreSH-tracer, 0.5 mM diamide) was “reduced”.

With Antimycin A the “fluorescence intensity ratio of MitoFreSH-tracer in living cells” value ([2]; cells treated with antimycin A for 75 minutes, various concentrations) was “decreased depending on the concentration”.

— patent US11472825B2, “Real-time fluorescence imaging sensor for measuring glutathione in organelle and preparation method therefor” (CELL2IN, INC., priority 2017, dated 2022)
